Data from patent publication US12036234B2, “Heparin conjugated to collagen-binding peptides for targeting to biological and synthetic tissues” (Northwestern University, priority 2017, dated 2024).
“Also recorded” adds a separate entry of the source. Ends that are not written are not given here.

Columns and labels:
collagen II = test: Peptide binding to ECM protein coated plates (streptavidin-594 fluorescence); parameters: species or system chicken; details: biotinylated peptide
Procedure: (§1) Peptide and ECM Binding Specificity. Collagens I, II, III, and IV, fibronectin, laminin, and Matrigel were coated onto 96-well black plates at 10 μg/cm^2. Biotinylated CBP or CBPi were added to coated plates at 0, 1, 10, 100, and 1000 μM overnight at 4° C., after which the plates were washed three times with PBS. Fluorescent streptavidin-594 (4 μg/mL) was added to each well and incubated at room temperature for 2 h, then thoroughly washed with PBS. The plates were read with a fluorescence microplate reader for fluorescence intensity (Ex 591 nm, Em 614 nm). All data were normalized to the background fluorescence intensity of Streptavidin-594 alone directed at each coated protein.

Matrigel = test: as above; details: 1000 μM biotinylated peptide
Procedure: as §1

laminin = target: T1, laminin (Mus musculus, UniProt P02468+P02469+P19137); test: as above; details: 1000 μM biotinylated peptide
T1 construct: purchased Sigma-Aldrich
Procedure: as §1

collagen III = target: T2, collagen III (Homo sapiens, UniProt P02461); test: as above; details: biotinylated peptide
T2 construct: purchased Sigma-Aldrich
T2 sequence (P02461 154-1221 limits assumed): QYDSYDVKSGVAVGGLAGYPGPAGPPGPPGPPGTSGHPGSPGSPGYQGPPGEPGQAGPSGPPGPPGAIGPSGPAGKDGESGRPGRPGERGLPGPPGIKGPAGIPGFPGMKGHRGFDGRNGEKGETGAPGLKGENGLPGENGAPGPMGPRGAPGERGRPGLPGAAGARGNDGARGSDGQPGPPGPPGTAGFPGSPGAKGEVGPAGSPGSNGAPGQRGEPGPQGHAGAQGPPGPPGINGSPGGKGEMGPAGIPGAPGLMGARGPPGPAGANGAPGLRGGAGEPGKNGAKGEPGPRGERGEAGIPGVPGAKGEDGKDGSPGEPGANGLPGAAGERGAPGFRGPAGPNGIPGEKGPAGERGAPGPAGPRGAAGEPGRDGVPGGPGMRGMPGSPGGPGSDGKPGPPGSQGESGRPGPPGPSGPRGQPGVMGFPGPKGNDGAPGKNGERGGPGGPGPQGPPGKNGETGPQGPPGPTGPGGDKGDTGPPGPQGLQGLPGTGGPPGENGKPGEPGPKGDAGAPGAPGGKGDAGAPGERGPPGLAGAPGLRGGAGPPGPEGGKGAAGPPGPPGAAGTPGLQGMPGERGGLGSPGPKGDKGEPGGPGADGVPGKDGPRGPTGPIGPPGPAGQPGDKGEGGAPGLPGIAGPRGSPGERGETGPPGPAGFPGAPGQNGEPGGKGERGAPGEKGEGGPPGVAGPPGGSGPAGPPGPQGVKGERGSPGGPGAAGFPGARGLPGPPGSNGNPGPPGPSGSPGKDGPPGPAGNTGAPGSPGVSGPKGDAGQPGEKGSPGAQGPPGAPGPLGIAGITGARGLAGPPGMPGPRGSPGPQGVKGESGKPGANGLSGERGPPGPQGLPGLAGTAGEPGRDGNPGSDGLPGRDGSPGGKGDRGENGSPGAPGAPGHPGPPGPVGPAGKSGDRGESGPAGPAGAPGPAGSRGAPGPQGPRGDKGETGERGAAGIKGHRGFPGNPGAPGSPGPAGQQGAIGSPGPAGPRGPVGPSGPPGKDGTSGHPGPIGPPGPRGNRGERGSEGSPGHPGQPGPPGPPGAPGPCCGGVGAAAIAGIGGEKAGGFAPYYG
Procedure: as §1

fibronectin = test: as above; parameters: species or system human; details: biotinylated peptide
Procedure: as §1

collagen IV = collagen IV (Mus musculus, UniProt P02463+P08122); test: as above; parameters: purchased Sigma-Aldrich; details: 1000 μM biotinylated peptide; relative to background fluorescence at 0 μM
Procedure: as §1

[1] = system: Human umbilical vein endothelial cells (HUVECs); test: Endothelial cell adhesion and retention on modified ECM; format: cell-based; details: 4 weeks (day 28) in culture
Procedure: Addition of Endothelial Cells to Modified ECM. Human umbilical vein endothelial cells (HUVECs, Lonza) at passages 3-8 were cultured in EGM-2 and used for cell seeding. The following groups of ECM vascular grafts (1 cm in length each, n=3 per group) were prepared: (1) ECM control alone without heparin or peptide; (2) ECM incubated with free, unconjugated heparin sodium (1 mg/mL); (3) ECM incubated with CBPi conjugated to heparin (1 mg/mL); and (4) ECM incubated with CBP conjugated to heparin (1 mg/mL). HUVECs were seeded twice onto the lumen of each graft (10000 cells/cm^2 at each inoculation) with a 180° rotation of the graft at 30 min after initial seeding. Recellularized grafts were maintained in culture under static condition with medium changed every 2 days.
Cell Number and Viability Measurement. Resazurin was used to assess cell number and viability of HUVECs on ECM grafts over time. 16 Resazurin sodium (44 μM in EGM-2) was added to cell-laden, ECM-modified grafts and incubated for 2 h and the fluorescence intensity (Ex 560 nm, Em 590 nm) was read. The number of cells was calculated based on the fluorescence reading of serially diluted HUVEC suspensions incubated in resazurin solution to develop a standard curve. Prior to performing each measurement, cell seeded grafts were moved to a new low-attachment, multiwell plate to eliminate off target readings from cells that may have migrated off the graft.
Cell Staining and Fluorescence Microscopy. At 4 weeks after cell seeding, each cell-seeded graft was fixed with paraformaldehyde and stained with Phalloidin-488. Fluorescence microscopy (Nikon TE2000U, Japan) was performed on the flattened luminal surface of the graft.

collagen I = target: T3, collagen I (Rattus norvegicus, UniProt P02454+P02466); test: Peptide binding to ECM protein coated plates (streptavidin-594 fluorescence); details: biotinylated peptide
T3 construct: purchased Sigma-Aldrich
Procedure: as §1

[2] = system: collagen I and collagen IV in decellularized rat aorta ECM and renal ECM; test: Streptavidin-594 staining of biotinylated CBP on decellularized tissue; format: binding; details: biotinylated CBP at 100 μM
Source text: FIG. 7: Immunofluorescence staining of collagen I and collagen IV in decellularized rat aorta ECM (A) and renal ECM (C). Streptavidin-594 staining of biotinylated CBP on decellularized rat aorta ECM (B) and renal ECM (D). Scale bar=100 μm.
The binding between collagens (types I and IV) and CBP, is predicted to be mediated by intermolecular forces between discrete amino acids within collagen and CBP^17 that contribute to the binding specificity observed above. The molecular composition of ECM is largely heterogeneous, including fibrous proteins such as collagens, soluble proteins such as fibronectin and laminin, and proteoglycans such as heparan sulfate, keratin sulfate, and chondroitin sulfate.^18 The detailed composition of ECM proteins also varies from tissue to tissue, however, ECM from most tissue types contains collagen I (interstitial matrix) and collagen IV (basement membrane).^18 Each collagen subtype is retained in decellularized tissues, specifically vascular (FIG. 7A) and renal tissues (FIG. 7C). […] Taken together, this delivery strategy using CBP as a localizing moiety specifically targets collagens (type IV in particular) and may be used to selectively carry bioactive molecules to the vasculature where collagen IV defines the subendothelial basement membrane that forms the vascular network, including the macro- and micro-vasculatures within all tissues and organs.

factor Xa = details: unconjugated heparin sodium; cited from earlier work
rat aorta ECM = test: Heparin deposited and retained on aorta ECM (DMMB GAG assay); format: binding; details: immediately after treatment at 1 mg/mL (t=0)
Procedure: Heparin Immobilization onto Rat Aorta ECM. All animal experiments and procedures were approved by the Animal Care and Use Committee of Northwestern University and animal care was performed in accordance with the NIH Guide for Care and Use of Laboratory Animals. Male Sprague-Dawley rats weighing 200-250 g (Charles River Laboratories, Chicago, IL) were used as donors to recover the abdominal segment of the aorta. Rat aorta ECM was isolated via decellularization as described 13 using 1% Triton X for 48 h and 1.5% SDS for 48 h at room temperature, followed by 100 U/mL DNase I solution at 37° C. for 4 h. Aorta ECM was subsequently incubated with heparin sodium, CBP-conjugated heparin or CBPi-conjugated heparin (1 mg/mL) overnight at 4° C., followed by three washes with PBS to remove excessive and unbound heparin (FIG. 1B). ECM without heparin incubation served as negative, untreated controls.
Quantification of Heparin Deposited onto ECM. The amount of heparin immobilized onto aorta ECM was quantified using a GAG assay. […] Retention of heparin on ECM after CBP-heparin treatment was assessed by incubating heparinized ECM in endothelial growth medium (EGM-2, Lonza) at 37° C. and measuring the amount of heparin remaining on ECM weekly using a GAG assay. […]

[3] = system: recalcified porcine blood; test: Clot formation of recalcified whole blood on ECM grafts
Procedure: Clot Formation of Recalcified Whole Blood. A recalcified whole blood clotting assay was performed to assess hemocompatibility of ECM grafts treated with or without the addition of heparin, alone or conjugated to CBP/CBPi.^15 Briefly, […] Each sample was weighed before and after incubation with recalcified blood, and the mass of the blood clotted on each sample was calculated and normalized to the weight of the ECM. Each sample containing clotted blood was subsequently embedded in paraffin, sectioned and stained with H&E for microscopic analysis.

[4] = target: T4, vascular endothelial growth factor, VEGF (Homo sapiens, UniProt P15692); test: Growth factor binding to modified ECM (VEGF ELISA); details: after incubation in EGM-2 for 3 days
T4 construct: purchased Lonza (component of EGM-2 medium)
T4 sequence (P15692 27-191 isoform P15692-4): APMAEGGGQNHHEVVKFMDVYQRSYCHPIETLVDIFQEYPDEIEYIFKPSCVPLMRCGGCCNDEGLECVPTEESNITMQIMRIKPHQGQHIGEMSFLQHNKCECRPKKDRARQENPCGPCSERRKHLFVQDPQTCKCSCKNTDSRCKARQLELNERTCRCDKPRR
Procedure: Growth Factor Binding to Modified ECM. ECM samples treated with PBS alone, heparin alone, CBPi-heparin, or CBP-heparin were incubated in EGM-2 (containing 2 ng/mL recombinant human vascular endothelial growth factor, VEGF) for 3 days and washed with PBS to measure the degree of VEGF recruited to heparin modified ECM. ECM grafts before and after EGM-2 incubation were weighed and proteins were extracted as previously described using a urea buffer. 13 The amount of VEGF was measured using an ELISA for human and rat VEGF (Thermo Fisher, Waltham, MA).

rat platelet rich plasma = test: Platelet adhesion to modified ECM (LDH assay); format: cell-based; details: ECM treated at 1 mg/mL
Procedure: Platelet Adhesion. The thrombogenic properties of modified ECM were evaluated by a platelet adhesion assay described previously.^13 ECM grafts were incubated in diluted rat platelet rich plasma ([…] platelet/mL) at 37° C. for 1 h, rinsed with warm PBS, and lysed with 2% Triton-X. Lactate dehydrogenase (LDH) released into the medium was measured by an LDH assay following the manufacturer's protocol (Roche Molecular Diagnostics, Pleasanton, CA). LDH measured from lysates of serially diluted platelets standardized the assay to quantify the concentration of deposited platelet on ECM.

T3 sequence (P02454 152-1207 limits assumed): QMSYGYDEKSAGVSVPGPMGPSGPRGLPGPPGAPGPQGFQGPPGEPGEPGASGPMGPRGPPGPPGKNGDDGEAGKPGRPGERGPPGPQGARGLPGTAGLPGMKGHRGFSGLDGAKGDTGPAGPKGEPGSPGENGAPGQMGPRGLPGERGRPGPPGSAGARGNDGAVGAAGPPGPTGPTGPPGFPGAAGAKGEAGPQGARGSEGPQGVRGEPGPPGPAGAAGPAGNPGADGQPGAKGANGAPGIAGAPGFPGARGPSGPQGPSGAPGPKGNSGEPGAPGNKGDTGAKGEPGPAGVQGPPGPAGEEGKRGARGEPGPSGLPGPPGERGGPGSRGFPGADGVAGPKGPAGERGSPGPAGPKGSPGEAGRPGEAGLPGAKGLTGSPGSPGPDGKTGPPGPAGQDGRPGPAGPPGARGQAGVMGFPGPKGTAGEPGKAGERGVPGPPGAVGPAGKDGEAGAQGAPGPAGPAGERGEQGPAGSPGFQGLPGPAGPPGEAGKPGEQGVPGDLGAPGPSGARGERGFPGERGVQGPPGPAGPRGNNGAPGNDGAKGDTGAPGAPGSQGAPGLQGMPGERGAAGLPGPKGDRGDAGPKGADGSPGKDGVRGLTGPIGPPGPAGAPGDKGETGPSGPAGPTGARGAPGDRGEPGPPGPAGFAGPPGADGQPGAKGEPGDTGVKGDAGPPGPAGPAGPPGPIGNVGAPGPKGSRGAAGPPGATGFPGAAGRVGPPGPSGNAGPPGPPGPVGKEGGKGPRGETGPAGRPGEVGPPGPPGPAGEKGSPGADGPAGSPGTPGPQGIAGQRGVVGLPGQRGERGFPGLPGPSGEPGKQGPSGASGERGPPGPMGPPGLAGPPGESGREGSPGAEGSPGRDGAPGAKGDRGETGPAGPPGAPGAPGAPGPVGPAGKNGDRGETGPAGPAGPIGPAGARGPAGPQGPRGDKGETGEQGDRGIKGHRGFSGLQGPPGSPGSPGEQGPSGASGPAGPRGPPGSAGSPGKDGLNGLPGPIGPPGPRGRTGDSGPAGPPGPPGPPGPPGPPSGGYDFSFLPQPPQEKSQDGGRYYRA
T3 sequence (P02466 86-1125 limits assumed): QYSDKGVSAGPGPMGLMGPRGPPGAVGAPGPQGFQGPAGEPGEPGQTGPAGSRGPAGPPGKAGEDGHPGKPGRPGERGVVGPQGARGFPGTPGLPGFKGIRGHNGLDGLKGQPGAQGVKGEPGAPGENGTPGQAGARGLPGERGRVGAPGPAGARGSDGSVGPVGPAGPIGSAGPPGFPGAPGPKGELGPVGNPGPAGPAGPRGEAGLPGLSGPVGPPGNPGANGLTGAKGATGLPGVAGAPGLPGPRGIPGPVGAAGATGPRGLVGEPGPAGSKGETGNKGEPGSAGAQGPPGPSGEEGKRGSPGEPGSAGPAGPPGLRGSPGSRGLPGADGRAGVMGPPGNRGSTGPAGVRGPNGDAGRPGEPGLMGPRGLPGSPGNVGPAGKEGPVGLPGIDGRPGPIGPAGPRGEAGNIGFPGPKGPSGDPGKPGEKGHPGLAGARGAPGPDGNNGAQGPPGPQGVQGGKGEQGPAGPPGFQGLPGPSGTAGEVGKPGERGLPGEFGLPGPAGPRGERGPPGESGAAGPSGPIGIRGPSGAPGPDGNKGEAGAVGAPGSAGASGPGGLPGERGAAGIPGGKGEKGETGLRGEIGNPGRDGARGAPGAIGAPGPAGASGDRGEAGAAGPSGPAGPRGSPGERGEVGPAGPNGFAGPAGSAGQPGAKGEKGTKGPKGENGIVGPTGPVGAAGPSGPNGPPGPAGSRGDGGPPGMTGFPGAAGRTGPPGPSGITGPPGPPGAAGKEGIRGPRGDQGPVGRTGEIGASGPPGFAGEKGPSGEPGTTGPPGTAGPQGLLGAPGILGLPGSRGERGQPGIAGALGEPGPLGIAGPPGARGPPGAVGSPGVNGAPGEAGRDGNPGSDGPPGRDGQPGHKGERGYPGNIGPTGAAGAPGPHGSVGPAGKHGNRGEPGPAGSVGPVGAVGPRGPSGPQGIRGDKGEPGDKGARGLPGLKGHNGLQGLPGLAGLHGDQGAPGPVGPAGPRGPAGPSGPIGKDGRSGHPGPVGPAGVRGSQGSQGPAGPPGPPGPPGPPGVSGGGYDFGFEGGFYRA
Chain of collagen IV (P02463 173-1669): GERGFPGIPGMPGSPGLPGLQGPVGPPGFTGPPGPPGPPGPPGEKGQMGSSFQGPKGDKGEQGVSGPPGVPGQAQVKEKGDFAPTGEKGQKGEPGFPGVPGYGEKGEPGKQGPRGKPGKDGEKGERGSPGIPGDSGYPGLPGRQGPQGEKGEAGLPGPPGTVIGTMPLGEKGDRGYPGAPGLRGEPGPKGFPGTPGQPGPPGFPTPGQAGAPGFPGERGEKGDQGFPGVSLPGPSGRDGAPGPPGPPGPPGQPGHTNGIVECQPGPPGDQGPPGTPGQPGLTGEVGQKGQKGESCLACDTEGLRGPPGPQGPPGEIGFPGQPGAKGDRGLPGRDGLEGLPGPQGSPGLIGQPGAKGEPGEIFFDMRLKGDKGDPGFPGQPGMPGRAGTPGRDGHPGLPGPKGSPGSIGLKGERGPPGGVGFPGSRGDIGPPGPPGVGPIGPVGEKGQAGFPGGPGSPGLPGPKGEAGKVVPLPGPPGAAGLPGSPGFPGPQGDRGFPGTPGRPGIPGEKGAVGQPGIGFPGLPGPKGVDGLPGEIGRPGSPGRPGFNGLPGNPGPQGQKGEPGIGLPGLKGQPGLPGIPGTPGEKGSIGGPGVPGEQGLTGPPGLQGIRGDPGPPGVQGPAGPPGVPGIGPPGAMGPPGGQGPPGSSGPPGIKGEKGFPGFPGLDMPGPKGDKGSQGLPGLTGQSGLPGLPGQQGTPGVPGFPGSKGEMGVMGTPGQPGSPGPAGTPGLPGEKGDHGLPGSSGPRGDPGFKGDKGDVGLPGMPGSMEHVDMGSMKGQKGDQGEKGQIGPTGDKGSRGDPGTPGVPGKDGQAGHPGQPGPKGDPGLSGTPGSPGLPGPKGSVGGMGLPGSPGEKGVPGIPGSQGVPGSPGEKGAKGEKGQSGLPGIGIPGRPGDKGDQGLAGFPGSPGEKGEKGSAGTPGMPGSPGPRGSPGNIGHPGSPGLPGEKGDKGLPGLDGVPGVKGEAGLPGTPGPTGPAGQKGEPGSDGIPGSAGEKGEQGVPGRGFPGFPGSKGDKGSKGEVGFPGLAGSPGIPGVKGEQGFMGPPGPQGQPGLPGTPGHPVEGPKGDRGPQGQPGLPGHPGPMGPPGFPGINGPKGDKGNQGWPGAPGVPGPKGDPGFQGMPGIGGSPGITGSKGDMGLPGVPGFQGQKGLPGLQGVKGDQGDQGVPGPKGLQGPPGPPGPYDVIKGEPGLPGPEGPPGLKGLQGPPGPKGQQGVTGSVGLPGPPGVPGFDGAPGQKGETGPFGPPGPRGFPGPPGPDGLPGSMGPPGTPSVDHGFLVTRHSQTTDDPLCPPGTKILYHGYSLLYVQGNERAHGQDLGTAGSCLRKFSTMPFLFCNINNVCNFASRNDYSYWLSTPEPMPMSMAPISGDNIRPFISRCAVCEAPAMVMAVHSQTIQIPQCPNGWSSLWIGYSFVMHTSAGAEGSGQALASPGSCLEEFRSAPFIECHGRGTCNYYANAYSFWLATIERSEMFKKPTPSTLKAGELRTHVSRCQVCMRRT
Chain of collagen IV (P08122 184-1707): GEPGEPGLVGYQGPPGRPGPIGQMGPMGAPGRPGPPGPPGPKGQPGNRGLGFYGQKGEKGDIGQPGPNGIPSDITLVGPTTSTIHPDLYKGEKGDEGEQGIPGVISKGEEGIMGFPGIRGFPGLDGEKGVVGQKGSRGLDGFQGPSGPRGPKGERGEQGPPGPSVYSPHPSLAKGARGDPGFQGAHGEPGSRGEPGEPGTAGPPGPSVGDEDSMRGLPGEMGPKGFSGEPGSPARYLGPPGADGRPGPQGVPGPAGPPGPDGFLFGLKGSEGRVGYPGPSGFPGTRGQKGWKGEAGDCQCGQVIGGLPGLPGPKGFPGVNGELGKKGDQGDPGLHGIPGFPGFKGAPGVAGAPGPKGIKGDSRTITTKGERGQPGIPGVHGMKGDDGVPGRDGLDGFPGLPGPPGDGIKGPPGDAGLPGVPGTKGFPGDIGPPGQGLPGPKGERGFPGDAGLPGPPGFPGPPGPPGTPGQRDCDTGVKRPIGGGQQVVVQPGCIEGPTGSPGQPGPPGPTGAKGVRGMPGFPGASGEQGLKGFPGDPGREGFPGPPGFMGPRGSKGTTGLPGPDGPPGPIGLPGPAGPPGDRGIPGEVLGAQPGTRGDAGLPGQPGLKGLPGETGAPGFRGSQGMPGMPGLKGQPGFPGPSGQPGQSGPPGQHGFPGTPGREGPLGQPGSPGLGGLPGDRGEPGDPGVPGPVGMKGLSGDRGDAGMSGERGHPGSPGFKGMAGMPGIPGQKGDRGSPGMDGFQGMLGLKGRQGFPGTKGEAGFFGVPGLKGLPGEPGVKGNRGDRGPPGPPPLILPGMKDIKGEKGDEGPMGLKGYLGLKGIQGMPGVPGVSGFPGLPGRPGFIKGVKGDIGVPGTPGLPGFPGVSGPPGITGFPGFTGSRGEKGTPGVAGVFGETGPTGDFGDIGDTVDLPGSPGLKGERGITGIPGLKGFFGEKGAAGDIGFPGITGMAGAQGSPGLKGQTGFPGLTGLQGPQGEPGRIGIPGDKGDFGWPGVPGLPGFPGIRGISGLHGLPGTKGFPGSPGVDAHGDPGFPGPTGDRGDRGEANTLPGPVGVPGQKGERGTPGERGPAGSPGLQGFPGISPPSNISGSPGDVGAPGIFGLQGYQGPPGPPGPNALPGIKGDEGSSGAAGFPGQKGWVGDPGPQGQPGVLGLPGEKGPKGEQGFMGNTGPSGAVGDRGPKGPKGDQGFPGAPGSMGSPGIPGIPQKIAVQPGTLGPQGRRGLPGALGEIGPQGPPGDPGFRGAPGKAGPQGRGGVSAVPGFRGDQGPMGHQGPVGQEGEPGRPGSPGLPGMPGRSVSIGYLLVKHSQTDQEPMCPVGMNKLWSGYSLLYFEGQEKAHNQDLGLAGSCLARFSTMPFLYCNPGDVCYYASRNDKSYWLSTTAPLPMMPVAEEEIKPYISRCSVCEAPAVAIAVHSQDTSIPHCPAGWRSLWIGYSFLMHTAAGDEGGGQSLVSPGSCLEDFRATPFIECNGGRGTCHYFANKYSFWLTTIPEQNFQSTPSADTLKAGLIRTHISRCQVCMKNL

Row | binding to collagen II (collagen II) | binding to collagen III (collagen III) | binding to fibronectin (fibronectin) | increase in surface fluorescence intensity on collagen IV coated surface (collagen IV) | binding to collagen I coated surfaces (collagen I) | VEGF concentration within ECM grafts [4] [pg/mg ECM] | Substance | binding to Matrigel (Matrigel) | binding to laminin (laminin) | adherent endothelial cells on ECM grafts [1] | adherent endothelial cells on ECM grafts ([1]; listed as BCPi) | colocalization with collagens in decellularized vascular and renal tissue [2] | anti-Factor Xa activity of reference standard (factor Xa) [U/mg] | glycosaminoglycan (heparin) content of ECM (rat aorta ECM) [μg GAG/mg ECM] | blood clots observed on ECM grafts (H&E) ([3]; decellularized vascular ECM grafts) | mass of clot/mass of ECM×100% ([3]; treated ECM with recalcified blood, 30 min point) [%] | reduction in the number of adherent platelets compared to PBS-treated ECM (rat platelet rich plasma) [%]
1 | Neither CBP nor CBPi binds | Neither CBP nor CBPi binds | Neither CBP nor CBPi binds | did not result in any increase | – | – | CDEFQRSTTY [CBPi] | minimal, through significant, levels of binding | minimal, through significant, levels of binding | did not preserve endothelial cell adhesion | Minimal to no cells remain | – | – | – | – | – | –
2 | Neither CBP nor CBPi binds | Neither CBP nor CBPi binds | Neither CBP nor CBPi binds | – | to a much lesser extent | – | CQDSETRTFY (not fully specified; also: biotin, place not given here; listed as Homo sapiens) [CBP] | minimal, through significant, levels of binding | minimal, through significant, levels of binding | did not preserve endothelial cell adhesion; also recorded: Minimal to no cells remain | – | colocalized with each subtype but was more prominent around collagen IV | – | – | – | – | –
3 | – | – | – | – | – | 46.5±12.1 | Heparin sodium | – | – | decreased significantly | – | – | 200 | 2.81±0.19 | Thick blood clots | 612.1±126.0 | 5.7±6.2
